Reference: ChEMBL document CHEMBL3868619, “Synthesis and biological assessment of novel N-(hydroxy/methoxy)alkyl β-enaminone curcuminoids” (Bioorg Med Chem Lett, 2016)
≈ marks a conversion by molar mass, not a printed value. Calls of active or inactive are those of the source. The calls are words filed in the database; no cut-off is given here.

Assays:
[1] = Cytotoxicity against CHOK1 cells assessed as decrease in cell viability after 48 hrs by MTT assay; assay type: toxicity, cell-based, Cricetulus griseus; conditions: Chinese hamster, CHO-K1 cells
[2] = Cytotoxicity against human HepG2 cells assessed as decrease in cell viability after 48 hrs by MTT assay; assay type: functional, cell-based; conditions: HepG2, 48 h
[3] = Cytotoxicity against human EAhy926 cells assessed as decrease in cell viability after 48 hrs by MTT assay; assay type: toxicity, cell-based, EA.hy 926; conditions: EA.hy926 cells
[4] = Cytotoxicity against human HT-29 cells assessed as decrease in cell viability after 48 hrs by MTT assay; assay type: functional, cell-based; conditions: HT-29, 48 h
[5] = Cytotoxicity against human Caco2 cells assessed as decrease in cell viability after 48 hrs by MTT assay; assay type: functional, cell-based; conditions: Caco-2, 48 h
HepG2 [6] = experiment: Cytotoxicity against human HepG2 cells assessed as change in cell morphology after 48 hrs; assay type: functional, cell-based
EA.hy 926 [7] = experiment: Induction of ROS generation in human EAhy926 cells at 10 uM using DCFH-DA by fluorescence assay relative to control; assay type: functional
EA.hy 926 [8] = experiment: Induction of ROS generation in human EAhy926 cells at 1 uM using DCFH-DA by fluorescence assay relative to control; assay type: functional
HT-29 [9] = experiment: Induction of ROS generation in human HT-29 cells at 1 uM using DCFH-DA by fluorescence assay relative to control; assay type: functional
[10] = Induction of ROS generation in CHOK1 cells at 10 uM using DCFH-DA by fluorescence assay relative to control; assay type: cell-based, Cricetulus griseus; conditions: chinese hamster, cho-k1, 10 µM
[11] = Solubility of the compound in dimethylformamide; assay type: physicochemical
[12] = Solubility of the compound in methanol; assay type: physicochemical
Caco-2 [13] = experiment: Induction of ROS generation in human Caco2 cells at 10 uM using DCFH-DA by fluorescence assay relative to control; assay type: functional
[14] = Cytotoxicity against human EAhy926 cells assessed as cell viability at 100 uM after 48 hrs by MTT assay relative to control; assay type: toxicity, cell-based, EA.hy 926; conditions: EA.hy926 cells, read-out: Activity
[15] = Solubility of the compound in ethyl acetate; assay type: physicochemical
[16] = Chemical stability of the compound sodium phosphate buffer at pH 6.8 after 24 hrs by LC-MS analysis; assay type: physicochemical; conditions: pH 6.8, 24 h
[17] = Antioxidant activity assessed as DPPH radical scavenging activity after 30 mins by spectrophotometric analysis; assay type: functional
[18] = Solubility of the compound in acetone; assay type: physicochemical
Caco-2 [19] = experiment: Induction of ROS generation in human Caco2 cells at 1 uM using DCFH-DA by fluorescence assay relative to control; assay type: functional
[20] = Solubility of the compound in dimethyl sulfoxide; assay type: physicochemical
HepG2 [21] = experiment: Induction of ROS generation in human HepG2 cells at 1 uM using DCFH-DA by fluorescence assay relative to control; assay type: functional
[22] = Solubility of the compound in ethanol; assay type: physicochemical
[23] = Aqueous solubility of the compound in sodium phosphate buffer at pH 6.8 after 24 hrs by shake flask method; assay type: physicochemical
HepG2 [24] = experiment: Induction of ROS generation in human HepG2 cells at 10 uM using DCFH-DA by fluorescence assay relative to control; assay type: functional
HT-29 [25] = experiment: Induction of ROS generation in human HT-29 cells at 10 uM using DCFH-DA by fluorescence assay relative to control; assay type: functional
[26] = Induction of ROS generation in CHOK1 cells at 1 uM using DCFH-DA by fluorescence assay relative to control; assay type: cell-based, Cricetulus griseus; conditions: chinese hamster, cho-k1, 1 µM
[27] = Aqueous solubility of the compound in sodium phosphate buffer at pH 6.8 after 90 mins by shake flask method; assay type: physicochemical
[28] = Solubility of the compound in 2-methyl-THF; assay type: physicochemical

Row | Activity [10] | solubility [11] | solubility [12] | solubility [15] | Stability [16] | EC50 [17] | solubility [18] | solubility [20] | solubility [22] | SMILES | IC50 at 48 h [1] | IC50 [2] | IC50 at 48 h [3] | IC50 [4] | IC50 [5] | Activity (EA.hy 926 [7]) | Activity (EA.hy 926 [8]) | Activity (HT-29 [9]) | Activity (Caco-2 [13]) | Activity (Caco-2 [19]) | Activity (HepG2 [21]) | also measured
1 | – | – | – | – | – | – | – | – | – | COc1cccc2c1C(=O)c1c(O)c3c(c(O)c1C2=O)C[C@@](O)(C(=O)CO)C[C@@H]3O[C@H]1C[C@H](N)[C@H](O)[C@H](C)O1 [DOXORUBICIN] | 4.2 µM | > 75 µM | 4.2 µM | 7.4 µM | 9.4 µM | – | – | – | – | – | – | Activity (HepG2 [6]): Active
2 | 84.4% | Soluble | Soluble | Insoluble | Stable | 27.3 µM | Insoluble | Soluble | Soluble | COCCNC(=C\C(=O)/C=C/c1ccc(O)c(OC)c1)/C=C/c1ccc(O)c(OC)c1 | 63 µM | > 100 µM | ≥ 100 µM | > 100 µM | > 100 µM | 121.3% | 126.2% | 86.5% | 75.6% | 105% | 83.8% | viability at 48 h, 100 µM [14]: 50.9%; solubility thermodynamic at 24 h [23]: 12.7 µM (≈ 5.4 µg/mL); Activity (HepG2 [24]): 66.6%; Activity (HT-29 [25]): 92.3%; Activity [26]: 94%; solubility thermodynamic at 1.5 h [27]: 16.7 µM (≈ 7.1 µg/mL); solubility [28]: Insoluble
3 | 85.7% | Soluble | Soluble | Insoluble | Stable | > 200 µM | Insoluble | Soluble | Soluble | O=C(/C=C(/C=C/c1ccc(O)cc1)NCCO)/C=C/c1ccc(O)cc1 | 66 µM | 48.4 µM | 50.2 µM | 66.2 µM | 57.9 µM | 99.3% | 108% | 94.9% | 87.1% | 98.1% | 82.7% | solubility thermodynamic at 24 h [23]: 37.9 µM (≈ 13.3 µg/mL); Activity (HepG2 [24]): 83.6%; Activity (HT-29 [25]): 90.6%; Activity [26]: 93.4%; solubility thermodynamic at 1.5 h [27]: 38.7 µM (≈ 13.6 µg/mL); solubility [28]: Insoluble
